US8044071B2, “Method for reducing side effects of CB2 receptor agonist therapy using a combination of a selective CB2 receptor agonist and a selective CB1 receptor antagonist” (Abbott Laboratories, priority 2007, dated 2011)

System: skin incision model of postoperative pain
Assay: Skin incision model of postoperative pain (tactile allodynia, von Frey)
Format: in vivo
Conditions: rat, rimonabant 30 μmol/kg i.p., vehicle 15 min later
Excerpt: Adult male Sprague-Dawley rats (250-300 g body weight, Charles River Laboratories, Portage, Mich.) were used. Animal handling and experimental protocols were approved by the Institutional Animal Care and Use Committee (IACUC) at Abbott Laboratories. For all surgical procedures, animals were maintained under halothane anesthesia (4% to induce, 2% to maintain), and the incision sites were sterilized using a 10% povidone-iodine solution prior to and after surgeries.
A skin incision model of postoperative pain was produced using the procedures described in Brennan et al., 1996, Pain, 64, 493. All rats were anesthetized with isoflurane delivered via a nose cone. Right hind paw incision was performed following sterilization procedures. The plantar aspect of the […] hind paw was placed through a hole in a sterile plastic drape. A 1-cm longitudinal incision was made through the skin and fascia of the plantar aspect of the hind paw, starting 0.5 cm from the proximal edge of the heel and extending towards the toes, the plantar muscle was elevated and incised longitudinally leaving the muscle origin and insertion points intact. The skin was then closed with two mattress sutures (5-0 nylon). After surgery, animals were then allowed to recover for 2 hours, at which time tactile allodynia was assessed as described below. To evaluate the anti-nociceptive effects, animals were i.p. administered vehicle or test compound 90 minutes following skin incision and tactile allodynia was typically assessed 30 minutes after compound administration.
Tactile allodynia was measured using calibrated von Frey filaments (Stoelting, Wood Dale, Ill.) as described in Chaplan, S. R., F. W. Bach, J. W. Porgrel, J. M. Chung and T. L. Yaksh, 1994, Quantitative assessment of tactile allodynia in the rat paw, J. Neurosci. Methods, 53, 55. Rats were placed into inverted individual plastic cage (20×12.5×20 cm) on top of a suspended wire mesh grid, and acclimated to the test chambers for 20 minutes. The von Frey filaments were applied perpendicularly from underneath the cage through openings in the wire mesh floor directly to an area within 1-3 mm (immediately adjacent) of the incision, and then held in this position for approximately 8 seconds with enough force to cause a slight bend in the filament. Positive responses included an abrupt withdrawal of the hind paw from the stimulus, or flinching behavior immediately following removal of the stimulus. A 50% withdrawal threshold was determined using an up-down procedure as described in Dixon, W. J., 1980, Efficient analysis of experimental observations, Ann. Rev. Pharmacol. Toxicol., 20, 441. The effect on paw withdrawal latency of test compounds compared to vehicle control represents the ability of the test compound to reduce allodynia. An increase in the paw withdrawal latency represents an anti-allodynic effect (i.e., a decrease in pain).
Using the skin incisional model of postoperative pain, the effects of compound A, CB2 agonist (Z)—N-(5-tert-butyl-3-butylthiazol-2(3H)-ylidene)-5-chloro-2-methoxybenzamide, on allodynia was assessed two hours after surgery.
Using the skin incisional model of postoperative pain, the effects of CB2 agonist A were evaluated after the administration of vehicle or the CB1 antagonist rimonabant. This effect was compared with the administration of vehicle after the administration of vehicle or the CB1 antagonist rimonabant. A first dose, consisting of CB1 antagonist rimonabant (30 μmol/kg i.p.) or a vehicle (5% DMSO/PEG), was administered 15 minutes before a second dose, consisting of administration of CB2 agonist A (30 μmol/kg i.p.) or vehicle. Allodynia testing was conducted 30 minutes after administration of the second dose, either CB2 agonist A or vehicle.

Cc1c(C(=O)NN2CCCCC2)nn(-c2ccc(Cl)cc2Cl)c1-c1ccc(Cl)cc1 [rimonabant, 5-(4-chlorophenyl)-1-(2,4-dichlorophenyl)-4-methyl-N-(piperidin-1-yl)-1H-pyrazole-3-carboxamide, reference compound]
tactile allodynia, rimonabant followed by vehicle: did not ameliorate the tactile allodynia
